Laboratory results reported in the supplement of paper PMC10949913.
“And” between values parts separate entries of the source, which are not always exact repeats. Identical values can stand only once.

Key:
Assay in all cases: area under concentration-response curve (viability) (AUC (a.u.)); higher = less active
Conditions in all cases: 48 h
CU-ACC1 = tested on: CU-ACC1
Summary of the method: (§1)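 Concentration-response curves were fitted to obtain AC50 and area under the curve, keeping inhibitory or non-responding curve classes only. Data came from CellTiter-Glo luminescence, normalised per plate to vehicle and empty-well controls, in three adrenocortical carcinoma cell lines. These were treated in 1,536-well plates with library compounds at 11 concentrations and read after 48 h.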

CU-ACC2 = tested on: CU-ACC2
Summary of the method: as §1

NCI-H295R = tested on: NCI-H295R
Summary of the method: as §1

Structure (SMILES) | area under concentration-response curve (CU-ACC1) | area under concentration-response curve (CU-ACC2) | area under concentration-response curve (NCI-H295R)
CC1=C(C)C\2=C(S1)[N]3C(=NN=C3C(CC(N)=O)\N=C2C4=CC=C(Cl)C=C4)C (stereo not given) | 439 | 480 | 431
CCN1CCN(c2ccc(Nc3cc(N(C)C(=O)Nc4c(Cl)c(OC)cc(OC)c4Cl)ncn3)cc2)CC1 | 511 | 580 | 479
OC1=CC2=C(C(=C1)O)C(=O)\C(=C(/O2)C3=CC(=C(O)C=C3)O)O | 499 | 607 | 545
COCCCN1CCC(NC(=O)c2cc(Cl)c(N)c3c2OCC3)CC1 | 562 | 549 | 565
COC1=C(OCCCOC2=C(OC)C=C3C(=O)N4CC(=C)C[C@H]4\C=N/C3=C2)C=C5\N=C/[C@@H]6CC(=C)CN6C(=O)C5=C1 | 320 | 404 | 444
CC(C)NC(=O)N1CC[C@@H](C1)NC/2=N/C3=C(C=CC(=C3)F)N(CC(F)F)C4=C2C=C(Cl)C=C4 | 580 | 656 | 580
CN[C@@H](C)C(=O)N[C@@H]1C(=O)N(Cc2c(C)ccc3ccccc23)c2ccc(C#N)cc2N(C(C)=O)[C@H]1C | 501 | 474 | 549
CC(C)CC(=O)N[C@H](C(=O)N[C@H](C(=O)N[C@@H](CC(C)C)[C@@H](O)CC(=O)N[C@@H](C)C(=O)N[C@@H](CC(C)C)[C@@H](O)CC(=O)O)C(C)C)C(C)C | 537 | 538 | 485
CCO[C@@H]1OC(=O)C[C@@H]1NC(=O)[C@@H]1CCCN2C(=O)CC[C@H](NC(=O)c3nccc4ccccc34)C(=O)N12 | 568 | 594 | 553
CC(NC1=CC=CC=C1)C\2=C\C(=C/N3C(=O)\C=C(/N=C23)N4CCOCC4)C (stereo not given) | 414 | 647 | 583
CC(C)(C)c1nc(-c2cccc(N[S+](=O)([O-])c3c(F)cccc3F)c2F)c(-c2ccnc(N)n2)s1 | 542 | 608 | 542
CC1=CC2=C(O1)C(=C3OC(=O)\C=C(C)/C3=C2)C | 482 | 581 | 516
CCOC(=O)[C@@H](N)CCC(=O)N[C@@H](CSCc1ccccc1)C(=O)N[C@@H](C(=O)OCC)c1ccccc1 | 594 | 635 | 602
COC1=CC(=CC(=C1CN(C)C)OC)\C2=C\N(C)C(=O)C3=C2C=CN=C3 | 500 | 578 | 479
CC(C)[C@H](CO)Nc1nc(Nc2ccc(C(=O)O)c(Cl)c2)c2ncn(C(C)C)c2n1 | 529 | 626 | 594
COC(=O)/C=C/C(=O)N(O)CCCCNCc1ccc(COC(=O)Nc2cccc3ccccc23)cc1 | 208 | 245 | 225
NC\1=N\C(=O)N(\C=N1)[C@H]2C[C@H](O)[C@@H](CO)O2 | 500 | 588 | 484
O=C(NCC1CCOCC1)c1cnc(Nc2ccc(Cl)cc2Cl)nc1C(F)(F)F | 399 | 562 | 525
CC/1=C2/N(C(=O)C(=C1)/NC3=CC(=NC=N3)N)C4(CCCCC4)NC2=O | 594 | 641 | 537
CC1=CC(=C(O)C(=C1C\C2=N\CCN2)C)C(C)(C)C | 515 | 579 | 496
CN1CCN(c2ccc(OC(F)(F)F)c(Nc3ncc4c(n3)-c3c(c(C(N)=O)nn3CCO)CC4)c2)CC1 | 498 | 587 | 460
O=C([O-])Cc1ccccc1Nc1c(Cl)cccc1Cl | 536 | 645 | 585
CC(=O)N1CCN(c2ccc(NC(=O)Cc3cnc(-c4ccnc(F)c4)c(C)c3)nc2)CC1 | 550 | 643 | 582

Structure (SMILES) | area under concentration-response curve (CU-ACC1) | area under concentration-response curve (CU-ACC2) | area under concentration-response curve (NCI-H295R)
Cc1ccc(C(=O)Nc2ccc([S+](=O)([O-])O)c3cc([S+](=O)([O-])O)cc([S+](=O)([O-])O)c23)cc1NC(=O)c1cccc(NC(=O)Nc2cccc(C(=O)Nc3cc(C(=O)Nc4ccc([S+](=O)([O-])O)c5cc([S+](=O)([O-])O)cc([S+](=O)([O-])O)c45)ccc3C)c2)c1 | 420 | 488 | 488
CC1Cc2ccccc2N1NC(=O)c1ccc(Cl)c([S+](N)(=O)[O-])c1 (stereo not given) | 488 | 583 | 531
S=C1N\C=N/C2=C1[NH]C=N2 | 438 | 518 | 495
OC[C@H]1O[C@@H](OC2=CC3=C(C=C2)C(=O)\C(=C/O3)C4=CC=C(O)C=C4)[C@H](O)[C@@H](O)[C@@H]1O | 551 | 591 | 576
Nc1ncnc2c1ncn2[C@@H]1O[C@H](CO)[C@@H](O)[C@H]1O | 463 | 506 | 470
CCCNC(=O)Nc1ccc(Oc2ncnc3cc(OC)c(OC)cc23)cc1Cl | 332 | 383 | 400
N#Cc1c(N(CC(=O)[O-])CC(=O)[O-])sc(C(=O)[O-])c1CC(=O)[O-] | 478 | 544 | 497
Fc1ccc(Cl)cc1-c1nc(Nc2ccncc2)c2nccnc2n1 | 553 | 612 | 549
Cc1cc(-c2cnn3c(NC[C@H]4C[C@@](C)(O)C4)cc(Oc4cccnc4)nc23)ccc1C(=O)NC1CC1 | 626 | 775 | 659
CCCCNc1cc(C(=O)O)cc([S+](N)(=O)[O-])c1Oc1ccccc1 | 505 | 596 | 553
CNCC(O)c1ccc(O)cc1 (stereo not given) | 565 | 618 | 579
COc1ccc(CNC(=O)c2cc(-c3cncc(Cl)c3)cnc2-c2ccccn2)nc1OC | 430 | 412 | 407
CC(=O)O[C@@]1(CC[C@H]2[C@@H]3\C=C(C)/C4=C/C(=O)CC[C@]4(C)[C@H]3CC[C@]12C)C(C)=O | 471 | 553 | 492
O=C1O[C@]2(CC[C@@H](C(=O)Nc3ccn(-c4ccccc4F)n3)CC2)c2cnccc21 | 492 | 602 | 494
CN(CC(=O)N(Cc1ccc(C2CCCCC2)cc1)c1ccc(C(=O)O)c(O)c1)[S+](=O)([O-])c1c(F)c(F)c(F)c(F)c1F | 486 | 558 | 536
N[C@@H]1CN(CC12CC2)C3=C(F)C=C4C(=O)\C(=C/N([C@@H]5C[C@@H]5F)C4=C3Cl)C(O)=O | 390 | 426 | 381
CSCC[C@@H](NC(=O)[C@@H](Cc1ccccc1)NC(=O)CNC(=O)CNC(=O)[C@@H](N)Cc1ccc(O)cc1)C(=O)O | 535 | 616 | 566
CCC/1=C(/NC2=C(C=N[N]2C1=O)C#N)C3=CC=CC=C3C | 550 and 493 | 577 and 487 | 552 and 522
c1ccc2c(CN3CCNCC3)cccc2c1 | 525 | 647 | 580
C[C@H]1CN(CCN1C2=CN=C(NC/3=C/C(=C\N(C)C3=O)C4=CC=NC(=C4CO)N5CC[N]6C7=C(CC(C)(C)C7)C=C6C5=O)C=C2)C8COC8 | 532 | 618 | 560
N=C(N)NN.N=C(N)NN.O=S(=O)(O)O | 503 | 559 | 524
COc1cc(F)c(C(C)C)cc1-c1ccc(C(F)(F)F)cc1CN1C(=O)O[C@H](c2cc(C(F)(F)F)cc(C(F)(F)F)c2)[C@@H]1C | 421 | 505 | 428
